Here are results for 24 compounds from patent publication US9051325B2, “Bicyclic [5,6] imidazo pyrimodone compounds for use in the treatment of diseases or conditions mediated by Lp-PLA2” (GlaxoSmithKline Intellectual Property Development Limited, priority 2013, dated 2015).

Read-outs that look alike come from different tables or passages of the source. A value given as a limit tells only on which side of the number the result lay.

The target of test [1] is T1, Lp-PLA2 in human plasma (Homo sapiens, UniProt Q13093).
T1 construct: from tissue; host or cells: pooled human plasma
T1 sequence (Q13093 22-441): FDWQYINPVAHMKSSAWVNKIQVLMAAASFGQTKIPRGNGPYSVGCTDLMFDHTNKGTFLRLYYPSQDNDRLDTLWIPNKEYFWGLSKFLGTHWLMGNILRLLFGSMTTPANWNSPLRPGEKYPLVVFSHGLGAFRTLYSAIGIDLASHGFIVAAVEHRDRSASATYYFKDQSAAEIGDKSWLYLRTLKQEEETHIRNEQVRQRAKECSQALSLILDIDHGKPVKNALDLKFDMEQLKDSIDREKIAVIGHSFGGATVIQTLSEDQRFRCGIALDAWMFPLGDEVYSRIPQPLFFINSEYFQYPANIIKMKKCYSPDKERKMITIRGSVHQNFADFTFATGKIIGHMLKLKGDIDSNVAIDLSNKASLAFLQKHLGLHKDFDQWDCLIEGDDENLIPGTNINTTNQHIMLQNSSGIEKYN
Description: Lp-PLA2 human plasma assay (Thio-PAF assay). The format is biochemical. Conditions: pooled human plasma; lower bounds; read-out: pIC50 values in the thio-PAF assay (converted). In short, it runs like this:
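Pooled human plasma preincubated 30 min with compounds, then given 2-thio-PAF substrate with CPM and NEM in 50 mM HEPES pH 7.4, 150 mM NaCl, 1 mM CHAPS. Reaction quenched after 2 min with TFA and read by fluorescence (ex 380/em 485) after 40 min at room temperature; pIC50 from curve fit.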

Test [2] has as its target T2, recombinant human Lp-PLA2 (Homo sapiens, UniProt Q13093).
T2 sequence (Q13093 22-441): T1 sequence (Q13093 22-441)
Description: Recombinant human Lp-PLA2 assay (rhLp-PLA2, PED6 assay). The format is biochemical. In short, it runs like this: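 Compounds were preincubated 30 min with 4 nM […] rhLp-PLA2 in 50 mM HEPES pH 7.4, 150 mM NaCl, 1 mM CHAPS, then PED6 substrate […] was added for 20 min at room temperature in the dark. Fluorescence was read at ex 480/em 540, and pIC50 was fitted from 1:3 serial dilutions.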

The mark [3] stands for this setting: lower bounds, read-out: pIC50 values in the PED6 assay (converted).
[4] abbreviates: read-out: rhLp-PLA2 (PED6 assay) (pIC50) (converted).

In the case of `CC1Cn2c(cc(OCc3ccc(Oc4cccc(C(F)(F)F)c4)c(C#N)c3)nc2=O)N1C` (stereo not drawn) [Example E71, 5-(((1,2-dimethyl-5-oxo-1,2,3,5-tetrahydroimidazo[1,2-c]pyrimidin-7-yl)oxy)methyl)-2-(3-(trifluoromethyl)phenoxy)benzonitrile], the values for the IC50 in test [1] and in test [2] (setting [3]) were at most 100 nM and at most 1 nM, respectively.
Consider `CN1c2cc(OCc3cccc(F)c3F)nc(=O)n2CC1(C)C` [Example E103, 7-((2,3-difluorobenzyl)oxy)-1,2,2-trimethyl-2,3-dihydroimidazo[1,2-c]pyrimidin-5(1H)-one], for which the IC50 in test [1] is at most 100 nM; in test [2] (setting [3]) it was at most 10 nM.
On to `CC1(C)Cn2c(cc(OCc3cc(F)c(Oc4ccc(F)nc4)c(F)c3)nc2=O)N1` [Example E134, 7-((3,5-difluoro-4-((6-fluoropyridin-3-yl)oxy)benzyl)oxy)-2,2-dimethyl-2,3-dihydroimidazo[1,2-c]pyrimidin-5(1H)-one], for which the IC50 was at most 100 nM in test [1] and at most 1 nM in test [2] (setting [3]).
As for `C[C@@H]1Cn2c(cc(OCc3ccc(Oc4ccnc(C(F)(F)F)c4)c(F)c3)nc2=O)N1C` [Example E51, (R)-7-((3-fluoro-4-((2-(trifluoromethyl)pyridin-4-yl)oxy)benzyl)oxy)-1,2-dimethyl-2,3-dihydroimidazo[1,2-c]pyrimidin-5(1H)-one], the results for the IC50 in test [1] and in test [2] (setting [3]) were at most 100 nM and at most 1 nM, respectively.
For `C[C@@H]1Cn2c(cc(OCc3ccc(Oc4cncc(C(F)(F)F)c4)c(C#N)c3)nc2=O)N1C` [Example E123, (R)-5-(((1,2-dimethyl-5-oxo-1,2,3,5-tetrahydroimidazo[1,2-c]pyrimidin-7-yl)oxy)methyl)-2-((5-(trifluoromethyl)pyridin-3-yl)oxy)benzonitrile] the same measures were at most 100 nM and at most 1 nM.
`CN1c2cc(OCc3cc(F)c(Oc4ccnc(Cl)c4)c(F)c3)nc(=O)n2CC1(C)C` [Example E30, 7-((4-((2-chloropyridin-4-yl)oxy)-3,5-difluorobenzyl)oxy)-1,2,2-trimethyl-2,3-dihydroimidazo[1,2-c]pyrimidin-5(1H)-one]: the IC50 is at most 100 nM in test [1] and at most 1 nM in test [2] (setting [3]).
For `C[C@H]1Cn2c(cc(OCc3ccc(F)c(C#N)c3)nc2=O)N1C` [Example E75, (S)-5-(((1,2-dimethyl-5-oxo-1,2,3,5-tetrahydroimidazo[1,2-c]pyrimidin-7-yl)oxy)methyl)-2-fluorobenzonitrile], the IC50 is at most 100 nM in test [1] and at most 10 nM in test [2] (setting [3]).
Consider `C[C@H]1Cn2c(cc(OCc3cc(F)c(Oc4ccnc(C(F)(F)F)c4)c(F)c3)nc2=O)N1` [Example E131, (S)-7-((3,5-difluoro-4-((2-(trifluoromethyl)pyridin-4-yl)oxy)benzyl)oxy)-2-methyl-2,3-dihydroimidazo[1,2-c]pyrimidin-5(1H)-one], for which the IC50 in test [1] is at most 100 nM; in test [2] (setting [3]) it was at most 1 nM.
Consider `C[C@H]1Cn2c(cc(OCc3ccc(Oc4ccnc(C(F)(F)F)c4)c(F)c3)nc2=O)N1C` [Example E10, (S)-7-((3-fluoro-4-((2-(trifluoromethyl)pyridin-4-yl)oxy)benzyl)oxy)-1,2-dimethyl-2,3-dihydroimidazo[1,2-c]pyrimidin-5(1H)-one], for which the IC50 is at most 100 nM in test [1] and at most 1 nM in test [2] (setting [3]).
As to `C[C@@H]1Cn2c(cc(OCc3ccc(Oc4ccc(C(F)(F)F)nc4)c(F)c3)nc2=O)N1C` [Example E107, (R)-7-((3-fluoro-4-((6-(trifluoromethyl)pyridin-3-yl)oxy)benzyl)oxy)-1,2-dimethyl-2,3-dihydroimidazo[1,2-c]pyrimidin-5(1H)-one], the IC50 in test [1] is at most 100 nM; in test [2] (setting [3]), at most 1 nM.
`CN1c2cc(OCc3cc(F)c(Oc4ccc(C(F)(F)F)nc4)c(F)c3)nc(=O)n2CC1(C)C` [Example E60, 7-((3,5-difluoro-4-((6-(trifluoromethyl)pyridin-3-yl)oxy)benzyl)oxy)-1,2,2-trimethyl-2,3-dihydroimidazo[1,2-c]pyrimidin-5(1H)-one]: the IC50 in test [1] is at most 100 nM; in test [2] (setting [3]) it was at most 1 nM; in test [2] (setting [4]), 0.0398 nM.
Take `CN1c2cc(OCc3cc(F)c(Oc4ccc(Cl)nc4)c(F)c3)nc(=O)n2CC1(C)C` [Example E13, 7-((4-((6-chloropyridin-3-yl)oxy)-3,5-difluorobenzyl)oxy)-1,2,2-trimethyl-2,3-dihydroimidazo[1,2-c]pyrimidin-5(1H)-one]: the values for the IC50 in test [1], in test [2] (setting [3]) and in test [2] (setting [4]) were at most 100 nM, at most 1 nM and 0.0501 nM, respectively.
Regarding `CC1Cn2c(cc(OCc3ccc(Oc4cc(F)cc(C(F)(F)F)c4)c(C#N)c3)nc2=O)N1C` (stereo not drawn) [Example E1, 5-(((1,2-dimethyl-5-oxo-1,2,3,5-tetrahydroimidazo[1,2-c]pyrimidin-7-yl)oxy)methyl)-2-(3-fluoro-5-(trifluoromethyl)phenoxy)benzonitrile], the IC50 was at most 100 nM in test [1] and at most 1 nM in test [2] (setting [3]).
For `CN1c2cc(OCc3cccc(C#N)c3)nc(=O)n2CC1(C)C` [Example E124, 3-(((1,2,2-trimethyl-5-oxo-1,2,3,5-tetrahydroimidazo[1,2-c]pyrimidin-7-yl)oxy)methyl)benzonitrile], in that order: at most 100 nM and at most 1 nM.
For `CN1c2cc(OCCc3cccs3)nc(=O)n2CC1(C)C` [Example E8, 1,2,2-trimethyl-7-(2-(thiophen-2-yl)ethoxy)-2,3-dihydroimidazo[1,2-c]pyrimidin-5(1H)-one], in that order: at most 100 nM and at most 10 nM.
For `[2H]C([2H])(Oc1cc2n(c(=O)n1)CC(C)(C)N2C)c1cccc(F)c1F` [Example E67, 7-(dideutero(2,3-difluorobenzyl)oxy)-1,2,2-trimethyl-2,3-dihydroimidazo[1,2-c]pyrimidin-5(1H)-one], in that order: at most 100 nM and at most 10 nM.
In the case of `CN1c2cc(OCc3ccc(Oc4ccc(F)nc4)c(F)c3)nc(=O)n2CC1(C)C` [Example E98, 7-((3-fluoro-4-((6-fluoropyridin-3-yl)oxy)benzyl)oxy)-1,2,2-trimethyl-2,3-dihydroimidazo[1,2-c]pyrimidin-5(1H)-one], the IC50 is at most 100 nM in test [1] and at most 1 nM in test [2] (setting [3]).
Turning to `CC1(C)Cn2c(cc(OCc3ccc(Oc4ccc(C(F)(F)F)nc4)c(F)c3)nc2=O)N1` [Example E37, 7-((3-fluoro-4-((6-(trifluoromethyl)pyridin-3-yl)oxy)benzyl)oxy)-2,2-dimethyl-2,3-dihydroimidazo[1,2-c]pyrimidin-5(1H)-one], the IC50 in test [1] was at most 100 nM; in test [2] (setting [3]), at most 1 nM.
Regarding `[2H]C1([2H])n2c(cc(OCc3cc(F)cc(F)c3)nc2=O)N(C)C1(C)C` [Example E137, 7-((3,5-difluorobenzyl)oxy)-1,2,2-trimethyl-3,3-dideutero-2,3-dihydroimidazo[1,2-c]pyrimidin-5(1H)-one], the IC50 in test [1] is at most 100 nM; in test [2] (setting [3]), at most 10 nM.
For `CC1(C)Cn2c(cc(OCc3cc(F)c(Oc4ccnc(C(F)(F)F)c4)c(F)c3)nc2=O)N1` [Example E127, 7-((3,5-difluoro-4-((2-(trifluoromethyl)pyridin-4-yl)oxy)benzyl)oxy)-2,2-dimethyl-2,3-dihydroimidazo[1,2-c]pyrimidin-5(1H)-one] the same measures were at most 100 nM and at most 1 nM.
Regarding `CC1(C)Cn2c(cc(OCc3cc(F)c(Oc4ccc(Cl)nc4)c(F)c3)nc2=O)N1` [Example E133, 7-((4-((6-chloropyridin-3-yl)oxy)-3,5-difluorobenzyl)oxy)-2,2-dimethyl-2,3-dihydroimidazo[1,2-c]pyrimidin-5(1H)-one], the IC50 in test [1] was at most 100 nM; in test [2] (setting [3]), at most 1 nM.
For `C[C@H]1Cn2c(cc(OCc3cc(F)c(Oc4ccnc(C(F)(F)F)c4)c(F)c3)nc2=O)N1C` [Example E58, (S)-7-((3,5-difluoro-4-((2-(trifluoromethyl)pyridin-4-yl)oxy)benzyl)oxy)-1,2-dimethyl-2,3-dihydroimidazo[1,2-c]pyrimidin-5(1H)-one], the IC50 in test [1] was at most 100 nM; in test [2] (setting [3]), at most 1 nM; in test [2] (setting [4]) it was 0.0631 nM.
In the case of `CC1(C)Cn2c(cc(OCc3ccc(Oc4ccnc(Cl)c4)c(F)c3)nc2=O)N1` [Example E82, 7-((4-((2-chloropyridin-4-yl)oxy)-3-fluorobenzyl)oxy)-2,2-dimethyl-2,3-dihydroimidazo[1,2-c]pyrimidin-5(1H)-one], the IC50 was at most 100 nM in test [1] and at most 1 nM in test [2] (setting [3]).
For `CC1Cn2c(cc(OCc3ccc(Oc4ccnc(C(F)(F)F)c4)c(F)c3)nc2=O)N1C` (stereo not drawn) [Example E31, 7-((3-fluoro-4-((2-(trifluoromethyl)pyridin-4-yl)oxy)benzyl)oxy)-1,2-dimethyl-2,3-dihydroimidazo[1,2-c]pyrimidin-5(1H)-one], the IC50 in test [1] is at most 100 nM; in test [2] (setting [3]) it was at most 1 nM.
